{"source": "patent US20250032506A1", "about": "“GLUCOCORTICOID RECEPTOR BLOCKADE WITH MIFEPRISTONE TO SENSITIZE PANCREATIC CANCER TO IMMUNOTHERAPY” (BOARD OF REGENTS, THE UNIVERSITY OF TEXAS SYSTEM, priority 2021, published 2025)", "key": {"HPAC cells": {"test_system": "HPAC cells", "experiment": "qPCR and immunoblotting of PD-L1 and MHC-I in HPAC cells", "type": "cell-based, human", "settings": "MIFE 20 μM (qPCR) or indicated doses (immunoblot), 72 h", "source_text": "The male PDAC cell lines HY24409 and HY24160 and the female PDAC cell line HY19636 were established from KPC mice (p48-Cre; Kras^LSL-G12D/+; Trp53^loxP/+) that were backcrossed to a C57BL/6 background (purity: ˜ 98%). (See Bardeesy, N., et al. supra). The human PDAC cell lines SU86.86 ([…]), SW1990 ([…]), BXPC-3 ([…]), Miapaca-2 ([…]), Capan-1 ([…]), ASPC-1 ([…]), Hs766T ([…]), Colo357/FG ([…]), L3.6PL ([…]), Panc28 ([…]), Capan-2 ([…]), CF-Pac-1 ([…]), Panc3 (sex unknown), Panc1 ([…]), Panc48 (sex unknown), and HPAC ([…]) were from Mien-Chie Hung's lab stock. The HY24409, HY24160, HY19636, SU86.86, SW1990, and Hs766T cell lines were cultured in RPMI 1640 (Corning, 10-041-CV) supplemented with 10% fetal bovine serum (FBS) (Gibco, 10438-034) and 1% penicillin/streptomycin (Sigma, P4333). The BXPC-3, Miapaca-2, Capan-1, ASPC-1, Colo357/FG, L3.6PL, Panc28, Capan-2, CF-Pac-1, Panc3, Panc1, Panc48, and HPAC cell lines were cultured in DMEM/F-12 (Corning, 10-092-CV) supplemented with 10% FBS and 1% penicillin/streptomycin. Cells were grown in a humidified incubator with 5% CO2 at 37° C., and low-passage stocks were maintained in a centralized lab cell bank. Short tandem repeat profiling and mycoplasma tests were done by the Cytogenetics and Cell Authentication Core at MD Anderson Cancer Center. […]"}, "GR": {"target": "GR (Homo sapiens, UniProt P04150)", "sequence (P04150 whole entry)": "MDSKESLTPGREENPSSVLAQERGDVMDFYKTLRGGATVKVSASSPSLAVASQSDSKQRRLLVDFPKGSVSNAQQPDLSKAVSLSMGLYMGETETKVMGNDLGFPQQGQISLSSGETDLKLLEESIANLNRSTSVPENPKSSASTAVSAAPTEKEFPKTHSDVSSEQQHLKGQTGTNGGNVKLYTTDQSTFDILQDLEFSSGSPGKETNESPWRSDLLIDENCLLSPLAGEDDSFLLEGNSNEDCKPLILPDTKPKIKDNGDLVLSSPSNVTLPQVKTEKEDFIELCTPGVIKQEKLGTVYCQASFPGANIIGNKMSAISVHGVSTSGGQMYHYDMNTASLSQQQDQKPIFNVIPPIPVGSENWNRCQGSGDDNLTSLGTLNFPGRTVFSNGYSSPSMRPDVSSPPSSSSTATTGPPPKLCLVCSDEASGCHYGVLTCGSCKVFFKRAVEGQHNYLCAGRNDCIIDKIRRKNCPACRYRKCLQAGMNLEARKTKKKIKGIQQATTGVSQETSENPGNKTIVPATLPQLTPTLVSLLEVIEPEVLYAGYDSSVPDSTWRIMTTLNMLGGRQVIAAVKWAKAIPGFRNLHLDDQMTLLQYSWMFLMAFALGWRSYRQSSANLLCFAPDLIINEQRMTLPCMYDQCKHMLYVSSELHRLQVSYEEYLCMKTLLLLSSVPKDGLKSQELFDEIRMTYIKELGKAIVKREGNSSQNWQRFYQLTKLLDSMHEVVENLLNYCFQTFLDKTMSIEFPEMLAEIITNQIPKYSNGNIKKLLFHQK", "settings": "ChIP-qPCR; co-treatment with mifepristone 100 nM and dexamethasone 100 nM, 30 min; SU86.86", "method": "SU86.86 cells were grown to 40% confluence in 15-cm dishes in RPMI with 10% FBS, followed by 72-hour incubation in phenol red-free RPMI supplemented with 5% charcoal-stripped FBS. […] Cells were cross-linked with 1% formaldehyde, quenched with glycine, and harvested. After cell lysis with ChIP lysis buffer, cells were digested with Micrococcal Nuclease and sonicated to achieve the majority of DNA fragments between 200 bp and 500 bp. […] Chromatin was eluted from GR ChIP following the manufacturer's protocol."}, "[1]": {"test_system": "orthotopic HY24409 tumors", "experiment": "CyTOF, flow cytometry, qPCR and multiplex immunofluorescent staining of orthotopic HY24409 tumors", "type": "in vivo, mouse", "method": "Cancer Discov 10, 1374-1387 (2020). […] CyTOF data were analyzed by FlowJo and Cytobank.\nImmunity 54, 1561-1577 e1567 (2021)."}, "[2]": {"settings": "CyTOF, orthotopic HY24409 tumors, vs vehicle or control shRNA"}, "[3]": {"settings": "flow cytometric analysis, HY24409 tumors"}}}
{"smiles": "CC#C[C@]1(O)CC[C@H]2[C@@H]3CCC4=CC(=O)CCC4=C3[C@@H](c3ccc(N(C)C)cc3)C[C@@]21C", "note": "[mifepristone]", "values": [{"measurement": "MHC-I at both mRNA and protein levels", "setting": "HPAC cells", "value": "significantly upregulated"}, {"measurement": "PD-L1 at both mRNA and protein levels", "setting": "HPAC cells", "value": "downregulated"}, {"measurement": "dexamethasone-induced binding of promoter sites to GR", "setting": "GR", "value": "reversed"}, {"measurement": "abundance of CD4+ T cells, regulatory T cells, natural killer cells, B cells, dendritic cells, macrophages, and myeloid-derived suppressor cells", "setting": "[1]; CyTOF, orthotopic HY24409 tumors", "value": "No significant change"}, {"measurement": "increase in percentage of granzyme B+ CTLs", "setting": "[1]; [2]", "value": 1.6, "unit": "fold"}, {"measurement": "increase in percentage of tumor-infiltrating CD8+ cells", "setting": "[1]; [2]", "value": 1.9, "unit": "fold"}, {"measurement": "cell-surface MHC-I (H-2K^b) and B2M levels in pancreatic tumors", "setting": "[1]; [3]", "value": "higher"}, {"measurement": "cell-surface PD-L1 levels in pancreatic tumors", "setting": "[1]; [3]", "value": "lower"}, {"measurement": "expression levels of intracellular TNFα, IFNγ, and IL-2 in tumor-associated CD8+ cells", "setting": "[1]; flow cytometry after ex vivo stimulation with PMA and ionomycin, HY24409 tumors", "value": "significantly increased"}, {"measurement": "surface levels of T cell exhaustion markers PD-1, Tim-3, and LAG-3", "setting": "[1]; flow cytometry, CTLs in HY24409 pancreatic tumors", "value": "significant reduction"}, {"measurement": "multiplex immunofluorescent staining of CD3, CD8, and granzyme B in pancreatic tumors", "setting": "[1]; mifepristone-treated C57BL/6 mice, HY24409", "value": "substantial enrichment"}, {"measurement": "mRNA levels of MHC-I components (H-2k, H-2d, and B2m) in tumors", "setting": "[1]; qPCR, HY24409 tumors", "value": "upregulated"}, {"measurement": "mRNA levels of PD-L1 and known GR-activated target genes (Klf9, Snai2, and Fn1) in tumors", "setting": "[1]; qPCR, HY24409 tumors", "value": "downregulated"}]}
